Data: patent US20230025976A1, “PRMT5 Inhibitor for Use In A Method of Treating Psoriasis and Other Autoimmune Conditions” (Pfizer Inc., priority 2020, published 2023)

Test system: psoriasis patient
Assay: Treatment of a psoriasis patient (case report, Example 1)
Type: in vivo, human
Conditions: for Psoriasis symptoms, skin, front of torso / Psoriasis symptoms, skin, back of torso: psoriasis patient
Procedure: They had chronic psoriatic lesions on the front and back sides of their torso. The lesions covered 75% of their body, and the patient had difficulty controlling these symptoms despite having used several different medications in the past. The psoriasis symptoms worsened after chemotherapy. The patient was treated with 1 mg of (1S,2S,3S,5R)-3-((6-(difluoromethyl)-5-fluoro-1,2,3,4-tetrahydroisoquinolin-8-yl) oxy)-5-(4-methyl-7H-pyrrolo[2,3-d]pyrimidin-7-yl)cyclopentane-1,2-diol orally twice a day, for four months. During the treatment period the patient was questioned about other medical conditions, if any, they were then experiencing. […] The patient discontinued treatment after four months, for reasons unrelated to their psoriasis. […] Photos taken after two and six weeks of treatment document the clearing of psoriasis symptoms. FIGS. 1 and 2 depict said clearing of psoriasis symptoms.

## Cc1ncnc2c1ccn2[C@@H]1C[C@H](Oc2cc(C(F)F)c(F)c3c2CNCC3)[C@@H](O)[C@H]1O [(1S,2S,3S,5R)-3-((6-(difluoromethyl)-5-fluoro-1,2,3,4-tetrahydroisoquinolin-8-yl)oxy)-5-(4-methyl-7H-pyrrolo [2,3-d]pyrimidin-7-yl)cyclopentane-1,2-diol]
1 mg orally twice a day for four months, one month after cessation of treatment
  Psoriatic skin lesions after cessation of treatment: remained in remission
person, severe psoriasis, 1 mg orally twice a day, following six weeks treatment
  Psoriatic skin lesions: significant clearing
person, severe psoriasis, 1 mg orally twice a day, within one week of initiating treatment
  Psoriatic skin lesions and related itching, patient-reported: improvement in their psoriatic skin lesions and a lessening of related itching
1 mg twice daily for six weeks, FIG. 1B
  Psoriasis symptoms, skin, front of torso: mild
1 mg twice daily for six weeks, FIG. 2B
  Psoriasis symptoms, skin, back of torso: mild
1 mg twice daily for two weeks, FIG. 1A
  Psoriasis symptoms, skin, front of torso: moderate
1 mg twice daily for two weeks, FIG. 2A
  Psoriasis symptoms, skin, back of torso: moderate
